Patent US5073563A, “Alkoxycoumarins substituted by a heterocyclic radical, their preparation and therapeutic agents containing these compounds” (BASF Aktiengesellschaft, priority 1988, dated 1991)
Counter-ions that a name gives are not always drawn.

Experiments:
[1] = literature test; cited from earlier work
[2] = literature test; cited from earlier work; remark: listed apart in the source
[3] = target: T1, MAO A (Rattus norvegicus, UniProt P21396); test: MAO A inhibition in dilute rat brain homogenate (14C substrate, 20 min at 37° C); type: biochemical; settings: 14C-phenylethylamine or 14C-tryptamine 0.4 μmol/l, logit-log regression
T1 construct: determined in dilute rat brain homogenate; from tissue; host or cells: rat brain homogenate
T1 sequence (P21396 1-526): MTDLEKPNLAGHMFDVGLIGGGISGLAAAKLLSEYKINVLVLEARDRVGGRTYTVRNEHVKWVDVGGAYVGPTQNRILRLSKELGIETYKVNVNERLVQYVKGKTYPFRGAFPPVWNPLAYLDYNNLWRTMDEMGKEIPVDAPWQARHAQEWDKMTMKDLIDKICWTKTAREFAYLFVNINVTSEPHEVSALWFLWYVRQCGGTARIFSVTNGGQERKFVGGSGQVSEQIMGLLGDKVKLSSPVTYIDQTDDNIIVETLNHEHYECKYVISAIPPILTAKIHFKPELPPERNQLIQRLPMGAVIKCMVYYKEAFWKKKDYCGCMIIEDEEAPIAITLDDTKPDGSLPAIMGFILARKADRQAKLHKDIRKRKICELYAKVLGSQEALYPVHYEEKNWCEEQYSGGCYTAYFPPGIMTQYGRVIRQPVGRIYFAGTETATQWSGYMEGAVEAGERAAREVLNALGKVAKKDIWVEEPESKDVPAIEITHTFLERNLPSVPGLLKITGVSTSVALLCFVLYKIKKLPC
Method: (§1) The MAO-inhibiting activity of the novel compounds can be determined using standard methods. […] The mixture was incubated for 20 minutes at 37° C.
(§2) The blank value was determined in similar mixtures with an incubation time of t=0 min.
(§3) From the inhibitory values determined at the various inhibitor concentrations against a control, the mean inhibitory concentration (IC50) was calculated by linear regression following logit-log transformation.

[4] = target: T2, MAO B (Rattus norvegicus, UniProt P19643); test: MAO B inhibition in dilute rat brain homogenate (14C substrate, 20 min at 37° C); type: biochemical; settings: for IC50 ratio MAO A / MAO B: quotient of IC50 MAO A and IC50 MAO B (selectivity for MAO B), 20 min; for IC50: rat brain homogenate, 14C-phenylethylamine or 14C-tryptamine 0.4 μmol/l, 20 minutes at 37° C, logit-log regression
T2 construct: determined in dilute rat brain homogenate; from tissue; host or cells: rat brain homogenate
T2 sequence (P19643 1-520): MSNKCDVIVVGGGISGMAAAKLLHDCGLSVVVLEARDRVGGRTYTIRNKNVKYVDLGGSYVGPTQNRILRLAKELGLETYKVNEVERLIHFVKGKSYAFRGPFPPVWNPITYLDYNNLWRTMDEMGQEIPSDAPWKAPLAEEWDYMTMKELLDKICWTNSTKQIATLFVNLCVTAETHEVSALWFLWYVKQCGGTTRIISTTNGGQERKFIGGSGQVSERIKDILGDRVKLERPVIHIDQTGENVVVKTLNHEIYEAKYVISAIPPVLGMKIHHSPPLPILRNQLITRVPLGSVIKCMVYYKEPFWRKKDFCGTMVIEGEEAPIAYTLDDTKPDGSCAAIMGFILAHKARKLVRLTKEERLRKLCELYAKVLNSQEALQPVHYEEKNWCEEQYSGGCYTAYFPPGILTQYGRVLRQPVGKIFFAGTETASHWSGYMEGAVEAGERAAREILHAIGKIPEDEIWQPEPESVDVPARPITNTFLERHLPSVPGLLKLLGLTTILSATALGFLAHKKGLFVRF
Method: as §1, §2, §3

| Structure (SMILES) | IC50 [3] | IC50 ratio MAO A / MAO B [4] | IC50 [4] | fungicidal action [1] | bacteriostatic action [2] |
| --- | --- | --- | --- | --- | --- |
| Cc1cc(=O)oc2cc(OCc3cc(-c4ccccc4)no3)ccc12 [4-methyl-7-(3-phenylisoxazol-5-yl-methoxy)-coumarin] | – | – | – | little or no success | little or no success |
| Cc1c(C)c2ccc(OCc3ncnn3C(C)C)cc2oc1=O [Example 70, 7-(1-Isopropyl-1,2,4-triazol-5-yl)-methoxy-3,4-dimethylcoumarin hydrochloride] | > 10 µM | > 770 | 0.013 µM | – | – |
| Cc1c(C)c2ccc(OCc3coc(Cc4ccccc4)c3)cc2oc1=O [Example 22, 7-(2-Benzylfuran-4-yl)-methoxy-3,4-dimethylcoumarin] | > 10 µM | > 6250 | 0.0016 µM | – | – |
| Cc1c(C)c2ccc(OCc3nc(C4CC4)no3)cc2oc1=O [Example 44, 3,4-Dimethyl-7-(3-cyclopropyl-1,2,4-oxadiazol-5-yl)-methoxycoumarin] | ~7 µM | ~ 5800 | 0.0012 µM | – | – |
| CCOc1nnc(COc2ccc3c(C)c(C)c(=O)oc3c2)s1 [Example 62, 7-(2-Ethoxy-1,3,4-thiadiazol-5-yl)-methoxy-3,4-dimethylcoumarin] | > 10 µM | > 1300 | 0.0075 µM | – | – |
| Cc1nnc(COc2ccc3c(C)c(Cl)c(=O)oc3c2)s1 [Example 30, 3-Chloro-4-methyl-7-(2-methyl-1,3,4-thiadiazol-5-yl)-methoxycoumarin] | > 10 µM | > 1700 | 0.0057 µM | – | – |
| Cc1c(C)c2ccc(OCc3cc(C)n(C)n3)cc2oc1=O [Example 73, 3,4-Dimethyl-7-(1,5-dimethylpyrazol-3-yl)-methoxycoumarin] | > 10 µM | > 700 | 0.014 µM | – | – |
| Cc1c(C)c2ccc(OCc3cc(C(C)C)nn3C)cc2oc1=O [Example 72, 7-(3-Isopropyl-1-methylpyrazol-5-yl)-methoxy-3,4-dimethylcoumarin] | ~10 µM | ~ 2000 | 0.0049 µM | – | – |
| Cc1c(Cl)c(=O)oc2cc(OCc3csc(C4CC4)n3)c(Cl)cc12 [Example 10, 3,6-Dichloro-4-methyl-7-(2-cyclopropylthiazol-4-yl)-methoxycoumarin] | > 10 µM | > 4500 | 0.0022 µM | – | – |
| Cc1c(C)c2ccc(OCC3COc4ccccc4O3)cc2oc1=O (centres unmarked) [Example 21, 7-(Benzodioxan-2-yl)-methoxy-3,4-dimethylcoumarin] | ~10 µM | ~ 1300 | 0.0077 µM | – | – |
| Cc1c(C)c2ccc(OCc3cc(C4CC4)no3)cc2oc1=O [Example 51, 7-(3-Cyclopropylisoxazol-5-yl)-methoxy-3,4-dimethylcoumarin] | > 10 µM | > 12500 | 0.0008 µM | – | – |
| Cc1c(C)c2ccc(OCc3coc(Cc4cccc(Cl)c4)c3)cc2oc1=O [Example 25, 7-[2-(3-Chlorobenzyl)-furan-4-yl]-methoxy-3,4-dimethylcoumarin] | > 10 µM | > 590 | 0.017 µM | – | – |
| Cc1ccsc1COc1ccc2c(C)c(C)c(=O)oc2c1 [Example 45, 3,4-Dimethyl-7-(3-methylthiophen-2-yl)-methoxycoumarin] | 0.23 µM | 450 | 0.00051 µM | – | – |

Now from value to compound, other results behind:

| IC50 [3] | IC50 ratio MAO A / MAO B [4] | IC50 [4] | Structure (SMILES) | fungicidal action [1] | bacteriostatic action [2] |
| --- | --- | --- | --- | --- | --- |
| > 10 µM | > 1700 | 0.0069 µM | CCc1cc2c(C)c(C)c(=O)oc2cc1OCc1nnc(C)s1 [Example 85, 6-Ethyl-3,4-dimethyl-7-(2-methyl-1,3,4-thiadiazol-5-yl)-methoxycoumarin] | – | – |
| > 10 µM | > 1000 | ~0.01 µM | Cc1c(C)c2ccc(OCc3ccc(C(C)(C)C)s3)cc2oc1=O [Example 92, 7-(2-tert-Butylthiophen-5-yl)-methoxy-3,4-dimethylcoumarin] | – | – |
| ~5 µM | ~ 1400 | 0.0036 µM | Cc1c(C)c2ccc(OCc3cc(C4CCOC4)no3)cc2oc1=O (centres unmarked) [Example 97, 3,4-Dimethyl-7-[3-(tetrahydrofuran-3-yl)-isoxazol-5-yl]-methoxycoumarin] | – | – |
| > 10 µM | > 5500 | 0.0018 µM | Cc1c(Cl)c(=O)oc2cc(OCc3csc(C(C)C)n3)c(Cl)cc12 [Example 103, 3,6-Dichloro-4-methyl-7-(2-isopropylthiazol-4-yl)-methoxycoumarin] | – | – |
| > 10 µM | > 11000 | 0.00092 µM | Cc1c(C)c2ccc(OCc3nc(C4CCCC4)no3)cc2oc1=O [Example 98] | – | – |
| > 10 µM | > 7700 | 0.0013 µM | Cc1c(C)c2ccc(OCc3cc(C4CCCC4)no3)cc2oc1=O [Example 78, 7-(3-Cyclopentylisoxazol-5-yl)-methoxy-3,4-dimethylcoumarin] | – | – |
| > 10 µM | > 1200 | 0.0082 µM | Cc1c(C)c2ccc(OCc3cc(C4CCCCC4)no3)cc2oc1=O [Example 99, 3,4-Dimethyl-7-(3-cyclohexylisoxazol-5-yl)-methoxycoumarin] | – | – |
